Data published in patent publication US20210145827A1, “ANTIBIOTIC GEL FORMULATION AND METHODS OF PREPARING THE ANTIBIOTIC GEL FORMULATION” (Indiana University Research and Technology Corporation, priority 2015, published 2021).

Legend:
[1] = system: three-week old E. faecalis biofilm; assay: biofilm disruption assay on infected dentin samples (Example 2); format: cell-based, E. faecalis (ATCC 29212); details: immersion 5 minutes
Experimental: Unidentified intact human teeth were collected, stored in 0.1% thymol solution at 4° C., and used within 6 months after obtaining local Institutional Review Board approval (IRB #1409251353). A standardized radicular dentin sample (4×4×1 mm^3) was obtained from each root using a slow diamond saw (IsoMet, Buehler, Lake Bluff, Ill.) under continuous distilled water irrigation. The pulpal side of each specimen was wet-finished with silicon carbide abrasive papers (500-2400 grit, Struers, Cleveland, Ohio). The polished samples were then sonicated in deionized water for 3 minutes, washed with sterile water, wrapped individually with moist cotton pellets, placed in Whirl-pak bags (Sigma-Aldrich, St Louis, Mo.), gas sterilized with ethylene oxide, and stored at 4° C. until used. E. faecalis (ATCC 29212) was grown initially on anaerobic blood agar plates (CDC, BioMerieux, Durham, N.C.). Colonies of E. faecalis were then suspended in brain-heart infusion (BHI) broth supplemented with 5 grams yeast extract/L (BHI-YE) and incubated for 24 hours at 37° C. with 5% CO2. Dentin samples were placed individually in separate wells of a 96-sterile well plate (Fisherbrand, Fischer Scientific) with the pulpal side facing upwards. […] The CFUs/mL were quantified using an automated colony counter (Synbiosis, Inc., Frederick, Md.). Summary statistics were calculated for the log-transformed data from each group. […]

[2] = system: stem cells from apical papillae and dental pulp stem cells; details: 2% CHX; in vitro studies; cited from earlier work

Row | Structure (SMILES) | antibiofilm effect (log CFU/mL) ([1]; 1.5% NaOCl) | effect on survival and attachment of stem cells from apical and dental pulp [2] | antibiofilm effect (log CFU/mL) ([1]; 2% CHX, versus control groups, not complete eradication)
1 | OCl [NaOCl, sodium hypochlorite] | complete eradication | – | –
2 | N=C(NCCCCCCNC(=N)NC(=N)Nc1ccc(Cl)cc1)NC(=N)Nc1ccc(Cl)cc1 [CHX] | – | highly unfavorable effects | significant reduction in E. faecalis biofilm
